This assay has as its system BDF1 mice, P388 leukemia ip, median survival T/C. The experiment in a line: NCI In Vivo Anticancer Drug Screen. Data for tumor model P388 Leukemia (intraperitoneal) in B6D2F1 (BDF1) mice. As to conditions: endpoint: median survival time, higher = longer survival. A digest of the protocol: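 T/C = treated-group survival ÷ vehicle-control survival; tumour transplanted into mice before dosing.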

The mark [1] stands for this setting: dose: 100.0 mg/kg/injection, schedule: Q04DX003 (ip), vehicle: saline.
Setting [2] is: dose: 200.0 mg/kg/injection, schedule: Q04DX003 (ip), vehicle: saline.
The mark [3] stands for this setting: dose: 400.0 mg/kg/injection, schedule: Q04DX003 (ip), vehicle: saline.
The mark [4] stands for this setting: dose: 50.0 mg/kg/injection, schedule: Q04DX003 (ip), vehicle: saline.
Where [5] appears, read: dose: 200.0 mg/kg/injection, schedule: Q01DX009 (ip), vehicle: saline.
Setting [6] is: dose: 50.0 mg/kg/injection, schedule: Q01DX009 (ip), vehicle: saline with Tween-80.
Setting [7] is: dose: 120.0 mg/kg/injection, schedule: Q01DX009 (ip), vehicle: saline.
The mark [8] stands for this setting: dose: 50.0 mg/kg/injection, schedule: Q01DX009 (ip), vehicle: saline.
[9] abbreviates: dose: 50.0 mg/kg/injection, schedule: Q04DX003 (ip), vehicle: saline with Tween-80.
Where [10] appears, read: dose: 100.0 mg/kg/injection, schedule: Q04DX003 (ip), vehicle: saline with Tween-80.
Setting [11] is: dose: 100.0 mg/kg/injection, schedule: Q01DX001 (ip), vehicle: Klucel (hydroxypropylcellulose) (HPC).
[12] abbreviates: dose: 200.0 mg/kg/injection, schedule: Q01DX001 (ip), vehicle: Klucel (hydroxypropylcellulose) (HPC).
Where [13] appears, read: dose: 100.0 mg/kg/injection, schedule: Q01DX009 (ip), vehicle: saline with Tween-80.
The mark [14] stands for this setting: dose: 200.0 mg/kg/injection, schedule: Q01DX009 (ip), vehicle: saline with Tween-80.

“And” between values parts separate entries of the source, which are not always exact repeats. Equal values may be shown once. Inconclusive results and toxic doses are left out.

Turning to `CN(CCCN(C)N=Nc1ccccc1C(=O)O)N=Nc1ccccc1C(=O)O`, the T/C runs as follows: under setting [1], 92 % of control; under setting [2], 88 % of control; under setting [3], 92 % of control.
Consider `Nc1nc(=S)c2ncn(C3OC(CO)C(O)C3O)c2[nH]1` (stereo not drawn), for which the T/C was 118 % of control (dose: 1.0 mg/kg/injection, schedule: Q01DX010 (ip), vehicle: saline); 118 % of control (dose: 2.0 mg/kg/injection, schedule: Q01DX010 (ip), vehicle: saline); 100 % of control and 109 % of control (dose: 4.0 mg/kg/injection, schedule: Q01DX010 (ip), vehicle: saline); 90 % of control and 100 % of control (dose: 8.0 mg/kg/injection, schedule: Q01DX010 (ip), vehicle: saline); 118 % of control under setting [4]; 122 % of control (dose: 132.0 mg/kg/injection, schedule: Q04DX003 (ip), vehicle: saline with Tween-80). In addition, the T/C runs as follows: under setting [5], 117 % of control; (dose: 300.0 mg/kg/injection, schedule: Q04DX003 (ip), vehicle: saline with Tween-80) 122 % of control; (dose: 400.0 mg/kg/injection, schedule: Q01DX009 (ip), vehicle: saline) 111 % of control.
`O=[N+]([O-])c1ccc(CCSCCc2ccc([N+](=O)[O-])cc2)cc1`: the T/C was 104 % of control (dose: 50.0 mg/kg/injection, schedule: Q01DX005 (ip), vehicle: Klucel (hydroxypropylcellulose) (HPC)); 97 % of control (dose: 100.0 mg/kg/injection, schedule: Q01DX005 (ip), vehicle: Klucel (hydroxypropylcellulose) (HPC)); 94 % of control (dose: 200.0 mg/kg/injection, schedule: Q01DX005 (ip), vehicle: Klucel (hydroxypropylcellulose) (HPC)).
In the case of `c1cc2c(c(NC3=NCCCO3)c1)CCCC2`, the T/C (dose: 12.5 mg/kg/injection, schedule: Q01DX009 (ip), vehicle: saline with Tween-80) was 100 % of control; the T/C (dose: 25.0 mg/kg/injection, schedule: Q01DX009 (ip), vehicle: saline with Tween-80) was 110 % of control; the T/C under setting [6] is 105 % of control.
`CN=C1N[N+]2=CCCCC2S1` (stereo not drawn): the T/C (dose: 60.0 mg/kg/injection, schedule: Q01DX009 (ip), vehicle: saline) was 163 % of control and the T/C under setting [7] was 95 % of control.
Turning to `COc1cc(-c2ccc(N=Nc3c(O)ccc4ccccc34)c(OC)c2)ccc1N=Nc1ccc2c(S(=O)(=O)O)cc(S(=O)(=O)O)c(N)c2c1O`, the T/C under setting [8] was 111 % of control; the T/C under setting [4] is 104 % of control; the T/C under setting [1] is 100 % of control; the T/C under setting [5] was 105 % of control; the T/C under setting [2] was 100 % of control.
For the compound `CCc1ccccc1OS(=O)(=O)c1ccccc1[N+](=O)[O-]`, the T/C (dose: 100.0 mg/kg/injection, schedule: Q04DX003 (ip), vehicle: Klucel (hydroxypropylcellulose) (HPC)) is 100 % of control; the T/C (dose: 200.0 mg/kg/injection, schedule: Q04DX003 (ip), vehicle: Klucel (hydroxypropylcellulose) (HPC)) was 100 % of control; the T/C (dose: 400.0 mg/kg/injection, schedule: Q04DX003 (ip), vehicle: Klucel (hydroxypropylcellulose) (HPC)) was 100 % of control.
For the compound `COc1c2c(c(OC(C)=O)c3c1C(=O)c1ccccc1C3=O)CCCC2`, the T/C (dose: 6.25 mg/kg/injection, schedule: Q01DX001 (ip), vehicle: saline) was 115 % of control; the T/C (dose: 12.5 mg/kg/injection, schedule: Q01DX001 (ip), vehicle: saline) was 115 % of control; the T/C (dose: 25.0 mg/kg/injection, schedule: Q01DX001 (ip), vehicle: saline) was 115 % of control; the T/C (dose: 50.0 mg/kg/injection, schedule: Q01DX001 (ip), vehicle: saline) is 115 % of control; the T/C (dose: 100.0 mg/kg/injection, schedule: Q01DX001 (ip), vehicle: saline) is 115 % of control.
For the compound `Nc1nc(=S)c2[nH]c(=S)[nH]c2[nH]1`, the T/C was 104 % of control (dose: 78.0 mg/kg/injection, schedule: Q04DX003 (ip), vehicle: saline with Tween-80); 112 % of control (dose: 118.0 mg/kg/injection, schedule: Q04DX003 (ip), vehicle: saline with Tween-80); 172 % of control (dose: 400.0 mg/kg/injection, schedule: Q04DX003 (ip), vehicle: saline with Tween-80); 186 % of control (dose: 600.0 mg/kg/injection, schedule: Q04DX003 (ip), vehicle: saline with Tween-80).
`O=c1oc2c(c(N(c3ccccc3)c3ccccc3)c1Cl)CSc1ccccc1-2`: the T/C runs as follows: (dose: 25.0 mg/kg/injection, schedule: Q04DX003 (ip), vehicle: saline with Tween-80) 100 % of control; under setting [9], 93 % of control; under setting [10], 90 % of control.
As for `O=C(Cn1cc(F)c(=O)[nH]c1=O)N1CCC2(CC1)SSC1(CCN(C(=O)Cn3cc(F)c(=O)[nH]c3=O)CC1)S2`, the T/C was 90 % of control (dose: 100.0 mg/kg/injection, schedule: Q01DX009 (ip), vehicle: saline); 104 % of control under setting [1]; 95 % of control under setting [5]; 95 % of control under setting [2]; 104 % of control under setting [3].
As for `CN(CCOc1ccccc1O)CCOc1ccccc1O`, the T/C was 120 % of control under setting [11]; 110 % of control under setting [12]; 105 % of control (dose: 400.0 mg/kg/injection, schedule: Q01DX001 (ip), vehicle: Klucel (hydroxypropylcellulose) (HPC)).
On to `COc1ccc(CCNC(=S)NCCc2ccc(OC)c(OC)c2)cc1OC`, for which the T/C reads like this: (dose: 50.0 mg/kg/injection, schedule: Q01DX001 (ip), vehicle: Klucel (hydroxypropylcellulose) (HPC)) 100 % of control; under setting [11], 100 % of control; under setting [12], 90 % of control.
Take `CSc1ncc2n1C=CN(C(=O)c1ccc([N+](=O)[O-])cc1)C2O` (stereo not drawn): the T/C was 99 % of control (dose: 12.5 mg/kg/injection, schedule: Q01DX009 (ip), vehicle: saline); 87 % of control (dose: 25.0 mg/kg/injection, schedule: Q01DX009 (ip), vehicle: saline); 107 % of control (dose: 25.0 mg/kg/injection, schedule: Q04DX003 (ip), vehicle: saline); 92 % of control under setting [8]; 94 % of control under setting [4]; 93 % of control under setting [1]. The T/C under setting [2] is 90 % of control.
For `Cc1c(Cl)cccc1NC(=O)Oc1ccc(Cl)cc1Cl`, the T/C is, setting by setting: under setting [9], 109 % of control; under setting [10], 122 % of control; (dose: 200.0 mg/kg/injection, schedule: Q04DX003 (ip), vehicle: saline with Tween-80) 113 % of control.
For `CC(C)CCOC(=O)CN(CC(=O)OCCC(C)C)c1ccccc1`, the T/C was 100 % of control under setting [13]; 100 % of control under setting [14]; 95 % of control (dose: 400.0 mg/kg/injection, schedule: Q01DX009 (ip), vehicle: saline with Tween-80).
Turning to `COC(=O)c1ccc(=O)c2nc3/c(=C/O)c(O)cc(=O)c3[nH]c12`, the T/C is 101 % of control (dose: 12.5 micrograms/kg/injection, schedule: Q01DX009 (ip), vehicle: Klucel (hydroxypropylcellulose) (HPC)); 97 % of control (dose: 25.0 micrograms/kg/injection, schedule: Q01DX009 (ip), vehicle: Klucel (hydroxypropylcellulose) (HPC)); 97 % of control (dose: 50.0 micrograms/kg/injection, schedule: Q01DX009 (ip), vehicle: Klucel (hydroxypropylcellulose) (HPC)); 100 % of control (dose: 99.0 micrograms/kg/injection, schedule: Q01DX009 (ip), vehicle: saline); 109 % of control (dose: 150.0 micrograms/kg/injection, schedule: Q01DX009 (ip), vehicle: saline); 113 % of control (dose: 225.0 micrograms/kg/injection, schedule: Q01DX009 (ip), vehicle: saline).
For `Clc1ccc(C2CC3CCCCN3O2)cc1` (stereo not drawn), the T/C was 90 % of control under setting [6], 99 % of control under setting [13] and 90 % of control under setting [14].
As to `C[n+]1cc2cc(O)c(O)cc2c2ccc3cc(O)c(O)cc3c21`, the T/C by setting is: (dose: 20.0 mg/kg/injection, schedule: Q01DX009 (ip), vehicle: saline) 104 % of control; (dose: 40.0 mg/kg/injection, schedule: Q01DX009 (ip), vehicle: saline) 96 % of control; (dose: 80.0 mg/kg/injection, schedule: Q01DX009 (ip), vehicle: saline) 91 % of control; under setting [7], 86 % of control; (dose: 240.0 mg/kg/injection, schedule: Q01DX009 (ip), vehicle: saline) 106 % of control.

Source of the values: PubChem BioAssay AID328 (DTP/NCI, 2004).
